The results in this text go back to patent publication US8273740B2, “2-sulfanyl-benzoimidazol-1-yi-acetic acid derivatives as CRTH2 antagonists” (Actelion Pharmaceuticals, Ltd., priority 2004, dated 2012).

Each structure is given as a SMILES string.

Experiment [1] addresses T1, hCRTH2 receptor (Homo sapiens, UniProt Q9Y5Y4).
T1 construct: expressed in transfected cells; host or cells: clonal HEK 293 cell line (membranes)
T1 sequence (Q9Y5Y4 1-395): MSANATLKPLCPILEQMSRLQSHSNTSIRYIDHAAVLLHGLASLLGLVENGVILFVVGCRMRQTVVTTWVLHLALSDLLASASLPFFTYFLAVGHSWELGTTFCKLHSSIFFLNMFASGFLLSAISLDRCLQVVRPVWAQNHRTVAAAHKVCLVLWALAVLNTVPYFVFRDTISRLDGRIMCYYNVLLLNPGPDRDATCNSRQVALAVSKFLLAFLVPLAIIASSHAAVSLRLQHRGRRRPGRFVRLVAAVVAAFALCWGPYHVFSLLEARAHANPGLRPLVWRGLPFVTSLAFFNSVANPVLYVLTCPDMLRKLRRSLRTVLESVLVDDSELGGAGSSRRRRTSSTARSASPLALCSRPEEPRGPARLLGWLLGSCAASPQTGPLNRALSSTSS
Put plainly: CRTH2 membranes radioligand binding assay ({3H}-PGD2); antagonist binding to the CRTH2 receptor. Particulars: {3H}-PGD2 radioligand binding, membranes of HEK 293 cells expressing recombinant hCRTH2; read-out: hCRTH2 BDG IC50. The procedure: Preparation of CRTH2 Membranes and Radioligand Binding Assay:
Cells are detached from culture plates in 5 ml buffer A per plate (5 mM Tris, 1 mM MgCl2x6H2O, 0.1 mM PMSF, 0.1 mM phenanthroline) using a police rubber and transferred into centrifugation tubes and frozen at −80° C. After thawing, the cells are centrifuged at 500 g for 5 min and then resuspended in buffer A. Cells are then fragmented by homogenization with a Polytron homogenizer for 30 s. The membrane fragments are centrifuged at 3000 g for 40 min and resuspended in membranes in buffer B (50 mM Tris, 25 mM MgCl2, 250 mM saccharose, pH 7.4) and aliquots are stored frozen.
Binding assay is performed in a total volume of 250 μl. […] For unspecific binding, PGD2 is added to the reaction mixture at 1 μM final concentration. This binding assay mix is incubated at rt for 90 min and then filtered through a GF/C filter plate. The filter is washed three times with ice cold binding buffer. Then, 40 μl per well Microscint-40 (Packard) are added and the bound radioactivity is quantified by means of Topcount (Packard).

Experiment [2] concerns the target T1, hCRTH2 receptor. Put plainly: Intracellular calcium mobilization assay (FLIPR), antagonism of prostaglandin D2. It is filed as cell-based. The source says: A functional assay with cells expressing the human CRTH2 receptor may be used to detect changes in the levels of intracellular calcium concentration following compound treatment. After addition of the compound the cells are challenged with PGD2. […] The relative values of the remaining activity were used to determine IC50 values by curve fitting the data to a single site to a four-parameter logistic sigmoid dose response curve of the equation (A+((B−A)/(1+((C/x)^D)))).
The ability of the compounds to inhibit PGD2 induced change of intracellular calcium levels via CRTH2 activation may be measured by methods known of one skilled in the art or by the method described below in the experimental part.
Intracellular Calcium Mobilization Assay (FLIPR):
Cells are detached from culture dishes using a dissociation buffer (0.02% EDTA in PBS, Gibco) for 1 min, and collected by centrifugation at 200 g at rt for 5 min in assay buffer [equal parts of Hank's BSS (HBSS, Bioconcept) and DMEM (low glucose, without phenol red, Gibco)].
Stock solutions of test compounds are made up at a concentration of 10 mM in DMSO, and serially diluted in assay buffer to concentrations required for inhibition dose response curves. Prostaglandin D2 (Biomol, Plymouth Meeting, Pa.) is used as an agonist.
A FLIPR384 instrument (Molecular Devices) is operated according to the manufacturer's standard instructions, adding 4 μl of test compound dissolved at 10 mM in DMSO and diluted prior to the experiment in assay buffer to obtain the desired final concentration. An assay buffer containing 10 μl of 80 nM prostaglandin D2 (Biomol, Plymouth Meeting, Pa.), supplemented with 0.8% bovine serum albumin (fatty acid content <0.02%, Sigma), is then added to obtain a final concentration of 10 nM and 0.1%, respectively. […] Emission peak values above base level after prostaglandin D2 addition are exported after base line subtraction. Values are normalized to high-level control (no test compound added) after subtraction of base line value (no prostaglandin D2 added). The program XL1fit 3.0 (IDBS) is used to fit the data to a single site dose response curve of the equation (A+((B−A)/(1+((C/x)^D)))) and to calculate the IC50 values.
(In general: Calcium assays in cells follow changes in intracellular calcium, usually with a dye or a luminescent sensor.)

[3] abbreviates: HEK-293 cells expressing hCRTH2, agonist prostaglandin D2 10 nM, read-out: hCRTH2 FLIPR IC50.

Usually IC50 stands for the midpoint of a concentration-inhibition curve. With `CCOC(=O)c1ccc(N(CCCSc2nc3ccccc3n2CC(=O)O)C(=O)C(c2ccccc2)C2CCCCC2)cc1` (racemic), the IC50 on hCRTH2 receptor [1] came to 7 nM. Still for that read-out and setting: to `COc1ccc(C(C)=O)cc1CSc1nc2cc(C=O)ccc2n1CC(=O)O` [[2-(5-Acetyl-2-methoxy-benzylsulfanyl)-5-formyl-benzoimidazol-1-yl]-acetic acid] belongs 6 nM. As for `O=C(O)Cn1c(SCC2CCCN(C(=O)c3ccc(Br)cc3)C2)nc2ccccc21` (racemic), at hCRTH2 receptor [1], the IC50 came out at 18 nM. Turning to `COc1ccc(C(C)=O)cc1CSc1nc2cc(F)ccc2n1C(C)C(=O)O` (racemic), the half-maximal inhibitory concentration (IC50) on hCRTH2 receptor [1] came out at 13 nM.

On to `CCCCNC(=O)c1ccc(OC)c(CSc2nc3cc(F)ccc3n2CC(=O)O)c1` [[2-(5-Butylcarbamoyl-2-methoxy-benzylsulfanyl)-5-fluoro-benzoimidazol-1-yl]-acetic acid], for which, on hCRTH2 receptor [2], the IC50 was 21 nM. Regarding `COC(=O)c1cccc(CSc2nc3cc([N+](=O)[O-])ccc3n2CC(=O)O)c1` [[2-(3-Methoxycarbonyl-benzylsulfanyl)-5-nitro-benzoimidazol-1-yl]-acetic acid], the IC50 on hCRTH2 receptor [2] (setting [3]) and at hCRTH2 receptor [1] was 15 nM each time. Consider `COc1ccc(C(C)=O)cc1CSc1nc2ccccc2n1CC(=O)O` [[2-(5-Acetyl-2-methoxy-benzylsulfanyl)-benzoimidazol-1-yl]-acetic acid], for which the IC50 on hCRTH2 receptor [1] worked out at 9 nM.

In the case of `CCCCOC(=O)N(CCCSc1nc2cc([N+](=O)[O-])ccc2n1CC(=O)O)CCc1ccccc1` [{2-[3-(Butoxycarbonyl-phenethyl-amino)-propylsulfanyl]-5-nitro-benzoimidazol-1-yl}-acetic acid], the IC50 at hCRTH2 receptor [1] amounted to 1 nM. Regarding `O=C(O)Cn1c(SCCC(c2ccccc2)c2ccccc2)nc2ccc([N+](=O)[O-])cc21` [[2-(3,3-Diphenyl-propylsulfanyl)-6-nitro-benzoimidazol-1-yl]-acetic acid], at hCRTH2 receptor [2] (setting [3]), the IC50 was 212 nM. As to `COc1ccc(C(=O)N2CCc3ccccc32)cc1CSc1nc2cc(F)ccc2n1CC(=O)O` [{2-[5-(2,3-Dihydro-indole-1-carbonyl)-2-methoxy-benzylsulfanyl]-5-fluoro-benzoimidazol-1-yl}-acetic acid], at hCRTH2 receptor [2] (setting [3]), the IC50 turned out to be 4 nM. Consider `CCCCC(=O)N(CCCSc1nc2ccccc2n1CC(=O)O)CCc1ccccc1` [{2-[3-(Pentanoyl-phenethyl-amino)-propylsulfanyl]-benzoimidazol-1-yl}-acetic acid], for which the IC50 on hCRTH2 receptor [1] is 12 nM.

For `CCCC(=O)N1CCCC(CSc2nc3cc(Cl)c(Cl)cc3n2CC(=O)O)C1` (centres unmarked) [[2-(1-Butyryl-piperidin-3-ylmethylsulfanyl)-5,6-dichloro-benzoimidazol-1-yl]-acetic acid], the half-inhibitory concentration (IC50) at hCRTH2 receptor [2] (setting [3]) came to 148 nM; on hCRTH2 receptor [1] it was 4 nM. Turning to `CCCC(=O)N1CCCC(CSc2nc3ccccc3n2CC(=O)O)C1` (racemic), the IC50 at hCRTH2 receptor [1] stood at 22 nM. On the same count and under the same terms, to `CCCCC(=O)N(CCCSc1nc2ccccc2n1CC(=O)O)CC(c1ccccc1)c1ccccc1` [(2-{3-[(2,2-Diphenyl-ethyl)-pentanoyl-amino]-propylsulfanyl}-benzoimidazol-1-yl)-acetic acid] belongs 15 nM. Take `O=C(O)Cn1c(SCC2CCN(C(=O)c3ccc(Br)cc3)C2)nc2cc(F)ccc21` (racemic): the IC50 was found to be 88 nM on hCRTH2 receptor [2] (setting [3]) and 23 nM at hCRTH2 receptor [1]. Regarding `CCCCOC(=O)N(CCCSc1nc2ccccc2n1CC(=O)O)CCc1ccccc1`, the IC50 on hCRTH2 receptor [1] turned out to be 10 nM. For `CCOC(=O)c1ccc(N(CCCSc2nc3ccccc3n2CC(=O)O)C(=O)CC(c2ccccc2)c2ccccc2)cc1`, on hCRTH2 receptor [2] (setting [3]), the IC50 worked out at 128 nM. For the molecule `CC(=O)c1ccc(OCCCO)c(CSc2nc3cc(F)ccc3n2CC(=O)O)c1` [{2-[5-Acetyl-2-(3-hydroxy-propoxy)-benzylsulfanyl]-5-fluoro-benzoimidazol-1-yl}-acetic acid], the IC50 on hCRTH2 receptor [1] was 2 nM. In the case of `O=C(O)Cn1c(SCC2CCCN(C(=O)c3cccc(Cl)c3)C2)nc2ccccc21` (racemic), the half-maximal inhibitory concentration (IC50) on hCRTH2 receptor [2] (setting [3]) came to 156 nM. For the molecule `COC(=O)c1ccc(OC)c(CSc2nc3ccccc3n2CC(=O)O)c1`, the IC50 at hCRTH2 receptor [2] (setting [3]) is 201 nM.
